According to patent US10723733B2, “Hepatitis B antiviral agents” (Enanta Pharmaceuticals, Inc., priority 2017, dated 2020):

Tested on: HBV
Assay: HepAD38 antiviral assay: reduction of viral product accumulation (virion DNA by qPCR, HBsAg/HBeAg by ELISA)
Type: cell-based
Details: Hepatitis B virus, 120 h, HepAD38 cells, 50% reduction of viral product accumulation vs no drug controls, five days after compound addition
Method: Methods: HepAD38 cells are maintained as previously reported (Ladner et al, Antimicrob. Agents Chemother. 1997, […], 1715). Briefly, cells are passaged upon attaining confluency in DMEM/F12 media in the presence of 10% FBS, Penn/Strep, 250 μg/mL G418, and 1 μg/ml tetracycline. Novel compounds are screened by first washing cells three times with PBS to remove tetracycline, and plating in 96 well plates at 35,000 cells/well. Compounds dissolved in DMSO are then diluted 1:200 into wells containing cells. Five days after compound addition, material is harvested for analysis. For an extended 8 day analysis, cells are plated and treated as described above, but media and compound are refreshed on d2 and d5 post initial treatment.
On harvest day, virion DNA is obtained by lysing with Sidestep Lysis and Stabilization Buffer and then quantified via quantitative real time PCR. Commercially available ELISA kits are used to quantitate the viral proteins HBsAg (Alpco) or HbeAg (US Biological) by following the manufacturer's recommended protocol after diluting samples to match the linear range of their respective assays. Irrespective of readout, compound concentrations that reduce viral product accumulation in the cell lysates or supernatants by 50% relative to no drug controls (EC50) are reported; EC50 ranges are as follows: A<0.1 μM; B 0.1-1 μM; C>1 μM.

Row | Compound | EC50 (given as numeric bound) | EC50 (class symbols)
1 | OCC(F)(F)CC1=C(c2cnn(C(F)F)c2)[C@H](c2ccc(F)cc2Cl)N=C(c2nccs2)N1 [Example 147] | > 400 nM | –
2 | CCOC(=O)NC[C@@H]1CCC(=O)N1CC1=C(c2ccn(C(F)F)n2)[C@H](c2ccc(F)cc2Cl)N=C(c2nccs2)N1 [Example 135] | > 400 nM | –
3 | OCC(CO)CC1=C(c2cnn(C(F)F)c2)[C@H](c2ccc(F)cc2Cl)N=C(c2nccs2)N1 [Example 26] | > 100 nM | –
4 | CC(=O)NS(=O)(=O)N[C@H]1CC2=C(c3cnn(C(F)F)c3)[C@H](c3ccc(F)cc3Cl)N=C(c3nccs3)N2C1 [Example 20] | > 400 nM | –
5 | OC1CCCCC1CC1=C(c2cnn(C(F)F)c2)[C@H](c2ccc(F)cc2Cl)N=C(c2nccs2)N1 (stereo partly drawn) [Example 46] | – | 100 to 1000 nM
6 | OC1CCCC1CC1=C(c2cnn(C(F)F)c2)[C@H](c2ccc(F)cc2Cl)N=C(c2nccs2)N1 (stereo partly drawn) [Example 45] | – | 100 to 1000 nM
7 | CCOC(=O)NC[C@@H]1CN(CC2=C(c3ccn(C(F)F)n3)[C@H](c3ccc(F)cc3Cl)N=C(c3nccs3)N2)C(=O)O1 [Example 129] | > 400 nM | –
8 | C=CC[C@@]1(COS(C)(=O)=O)CC2=C(c3cnn(C(F)F)c3)[C@H](c3ccc(F)cc3Cl)N=C(c3nccs3)N2C1 [Example 40] | > 400 nM | –
9 | COC(=O)CNC(=O)[C@@]1(NC(=O)OC)CC2=C(c3ccn(C(F)F)n3)[C@H](c3ccc(F)cc3Cl)N=C(c3nccs3)N2C1 [Example 74] | > 400 nM | –
10 | O=S(=O)(N[C@H]1CC2=C(c3cnn(CC(F)(F)F)c3)[C@H](c3ccc(F)cc3Cl)N=C(c3nccs3)N2C1)C1CC1 [Example 7] | – | < 100 nM
11 | COC(=O)N[C@@]1(CO)CC2=C(c3ccn(C(F)F)n3)[C@H](c3ccc(F)cc3Cl)N=C(c3nccs3)N2C1 [Example 84] | – | < 100 nM
12 | COCC(F)(COC)CC1=C(c2cnn(C(F)F)c2)[C@H](c2ccc(F)cc2Cl)N=C(c2nccs2)N1 [Example 138] | – | 100 to 1000 nM
13 | C[C@]1(CN=[N+]=[N-])CC2=C(c3cnn(C(F)F)c3)[C@H](c3ccc(F)cc3Cl)N=C(c3nccs3)N2C1 [Example 36] | > 400 nM | –
14 | COC(=O)[C@@](N)(CO)CC1=C(c2ccn(C(F)F)n2)[C@H](c2ccc(F)cc2Cl)N=C(c2nccs2)N1 [Example 92] | > 400 nM | –
15 | CS(=O)(=O)N[C@]1(CO)CC2=C(c3ccn(C(F)F)n3)[C@H](c3ccc(F)cc3Cl)N=C(c3nccs3)N2C1 [Example 69] | > 400 nM | –
16 | COC(=O)OC[C@]1(N=[N+]=[N-])CC2=C(c3cnn(C(F)F)c3)[C@H](c3ccc(F)cc3Cl)N=C(c3nccs3)N2C1 [Example 54] | > 400 nM | –
17 | O=C1N[C@@](/C=N/Oc2ccccc2)(CC2=C(c3ccn(C(F)F)n3)[C@H](c3ccc(F)cc3Cl)N=C(c3nccs3)N2)CO1 [Example 102] | – | 100 to 1000 nM
18 | CC(=O)OC[C@@]1(N=[N+]=[N-])CC2=C(c3cnn(C(F)F)c3)[C@H](c3ccc(F)cc3Cl)N=C(c3nccs3)N2C1 [Example 59] | – | < 100 nM
19 | COC(=O)[C@]1(NC(=O)OC(C)(C)C)CC2=C(c3ccn(C(F)F)n3)[C@H](c3ccc(F)cc3Cl)N=C(c3nccs3)N2C1 [Example 65] | > 400 nM | –
20 | OC[C@]1(O)CC2=C(c3ccn(C(F)F)n3)[C@H](c3ccc(F)cc3Cl)N=C(c3nccs3)N2C1 [Example 123] | > 400 nM | –
21 | CS(=O)(=O)OC[C@]1(N=[N+]=[N-])CC2=C(c3cnn(C(F)F)c3)[C@H](c3ccc(F)cc3Cl)N=C(c3nccs3)N2C1 [Example 49] | – | 100 to 1000 nM
22 | COC(=O)[C@](CO)(CC1=C(c2ccn(C(F)F)n2)[C@H](c2ccc(F)cc2Cl)N=C(c2nccs2)N1)NC(=O)OC(C)(C)C [Example 63] | > 400 nM | –
23 | CC(=O)OC[C@]1(N=[N+]=[N-])CC2=C(c3cnn(C(F)F)c3)[C@H](c3ccc(F)cc3Cl)N=C(c3nccs3)N2C1 [Example 58] | > 400 nM | –

Row | Compound | EC50 (given as numeric bound) | EC50 (class symbols)
24 | CO/N=C/[C@]1(CC2=C(c3ccn(C(F)F)n3)[C@H](c3ccc(F)cc3Cl)N=C(c3nccs3)N2)COC(=O)N1 [Example 101] | > 400 nM | –
25 | CS(=O)(=O)OC[C@]1(F)CC2=C(c3cnn(C(F)F)c3)[C@H](c3ccc(F)cc3Cl)N=C(c3nccs3)N2C1 [Example 34] | > 400 nM | –
26 | COC(=O)N[C@]1(C(=O)O)CC2=C(c3ccn(C(F)F)n3)[C@H](c3ccc(F)cc3Cl)N=C(c3nccs3)N2C1 [Example 73] | > 400 nM | –
27 | CC(C)(C)OC(=O)N[C@H]1CC2=C(c3cnn(C(F)F)c3)[C@H](c3ccc(F)cc3Cl)N=C(c3nccs3)N2C1 [Example 2] | – | 100 to 1000 nM
28 | COC(=O)N[C@]1(COC(=O)NCCC(=O)O)CC2=C(c3ccn(C(F)F)n3)[C@H](c3ccc(F)cc3Cl)N=C(c3nccs3)N2C1 [Example 79] | > 400 nM | –
29 | CCOC(=O)NC[C@H]1CN(CC2=C(c3ccn(C(F)F)n3)[C@H](c3ccc(F)cc3Cl)N=C(c3nccs3)N2)C(=O)O1 [Example 126] | > 400 nM | –
30 | CNC(=O)OC[C@]1(CC2=C(c3ccn(C(F)F)n3)[C@H](c3ccc(F)cc3Cl)N=C(c3nccs3)N2)COC(=O)N1 [Example 98] | > 400 nM | –
31 | C[C@@]1(CN=[N+]=[N-])CC2=C(c3cnn(C(F)F)c3)[C@H](c3ccc(F)cc3Cl)N=C(c3nccs3)N2C1 [Example 37] | > 400 nM | –
32 | COC(=O)NC[C@@H]1CCC(=O)N1CC1=C(c2ccn(C(F)F)n2)[C@H](c2ccc(F)cc2Cl)N=C(c2nccs2)N1 [Example 133] | > 400 nM | –
33 | COC(=O)[C@@]1(NC(=O)OC(C)(C)C)CC2=C(c3ccn(C(F)F)n3)[C@H](c3ccc(F)cc3Cl)N=C(c3nccs3)N2C1 [Example 64] | > 400 nM | –
34 | [N-]=[N+]=NC[C@@]1(N=[N+]=[N-])CC2=C(c3cnn(C(F)F)c3)[C@H](c3ccc(F)cc3Cl)N=C(c3nccs3)N2C1 [Example 53] | > 400 nM | –
35 | O=S(=O)(CC1=C(c2cnn(C(F)F)c2)[C@H](c2ccc(F)cc2Cl)N=C(c2nccs2)N1)N1CCC(O)CC1 [Example 146] | > 400 nM | –
36 | CCC[C@H]1OC[C@](F)(CC2=C(c3cnn(C(F)F)c3)[C@H](c3ccc(F)cc3Cl)N=C(c3nccs3)N2)CO1 [Example 141] | > 400 nM | –
37 | COC(=O)NC[C@@]1(O)CC2=C(c3ccn(C(F)F)n3)[C@H](c3ccc(F)cc3Cl)N=C(c3nccs3)N2C1 [Example 117] | > 400 nM | –
38 | CN(C)C(=O)NCC1(F)CC2=C(c3cnn(C(F)F)c3)[C@H](c3ccc(F)cc3Cl)N=C(c3nccs3)N2C1 (stereo partly drawn) [Example 44] | – | 100 to 1000 nM
39 | Fc1ccc([C@@H]2N=C(c3nccs3)NC(C[C@]3(F)CO[C@H](c4ccccc4)OC3)=C2c2cnn(C(F)F)c2)c(Cl)c1 [Example 144] | > 400 nM | –
40 | CC(O)[C@]1(CC2=C(c3ccn(C(F)F)n3)[C@H](c3ccc(F)cc3Cl)N=C(c3nccs3)N2)COC(=O)N1 (stereo partly drawn) [Example 110] | > 400 nM | –
41 | CN(C)C(=O)N[C@H]1CC2=C(c3cnn(C(F)F)c3)[C@H](c3ccc(F)cc3Cl)N=C(c3nccs3)N2C1 [Example 18] | – | < 100 nM
42 | CS(=O)(=O)NCC1(F)CC2=C(c3cnn(C(F)F)c3)[C@H](c3ccc(F)cc3Cl)N=C(c3nccs3)N2C1 (stereo partly drawn) [Example 43] | – | 100 to 1000 nM
43 | Fc1ccc([C@@H]2N=C(c3nccs3)N3C(=C2c2cnn(C(F)F)c2)CC2CCCC23)c(Cl)c1 (stereo partly drawn) [Example 47] | > 400 nM | –
44 | [N-]=[N+]=NC[C@]1(N=[N+]=[N-])CC2=C(c3cnn(C(F)F)c3)[C@H](c3ccc(F)cc3Cl)N=C(c3nccs3)N2C1 [Example 52] | > 400 nM | –
45 | COC(=O)N[C@@]1(C(=O)OC)CC2=C(c3ccn(C(F)F)n3)[C@H](c3ccc(F)cc3Cl)N=C(c3nccs3)N2C1 [Example 82] | > 400 nM | –
